Measurements as given in patent US7919101B2 (priority 2008, dated 2011).
Where “and” joins values, the source holds several entries; their conditions need not be identical. Equal entries are not always repeated. Where two headings read alike, the source gives them in different places. Residues, ends and D or L forms follow the SMILES beside them.

Columns and labels:
[1] = tested on: HIV-1 NL4-3D36G; assay: Inhibition of infection by T-20-sensitive strain NL4-3D36G; assay type: cell-based; conditions: for Dose reduction: NL4-3D36G
Description: 2. Inhibition of HIV infection as measured by luciferase assay. The inhibitory activity of fusion/entry inhibitors on HIV infection in TZM-bl cells was determined by using a luciferase assay (Wei X et al. Antimicrob. Agents Chemother. 46:1896-1905, 2002). Briefly, 50 μl of a compound at graded concentration in triplicate were incubated with an equal volume of an HIV-1 isolate at 0.01 multiplicity of infection (MOI) at 37° C. for 30 min, followed by addition of the mixture to 100 μl TZM-bl cells (1×10^5/ml) that were pre-cultured in a 96-well plate at 37° C. overnight. After further culture at 37° C. for 3 days, the cells were harvested and lyzed with 50 μl lysing reagent. The luciferase activity was analyzed using a luciferase kit (Promega Corp.) and a luminometer (Model: Ultra […], Tecan) according to the manufacture's instruction. The percent inhibition of cell fusion by a compound as well as EC50 and EC90 values were calculated using the software CalcuSyn.
3. Inhibition of HIV replication as measured by p24 antigen production. The inhibitory activity of fusion/entry inhibitors on HIV-1 infection as measured by p24 antigen production was determined as previously described (Zhao Q et al. AIDS Res Hum Retroviruses 18:989-997, 2002). In brief, 1×10^4 MT-2 cells were infected with an HIV-1 strain (100 TCID50) in 200 μl RPMI 1640 medium containing 10% FBS in the presence or absence of testing compounds at graded concentrations overnight. Then the culture supernatants were removed and fresh media containing no testing compounds were added. On the fourth day post-infection, 100 μl of culture supernatants were collected from each well, mixed with equal volumes of 5% Triton X-100 and assayed for p24 antigen, which was quantitated by ELISA. Briefly, wells of polystyrene plates were coated with HIV immunoglobulin (HIVIG, prepared from plasma of HIV-seropositive donors with high neutralizing titers against HIV-1IIIB), in 0.085 M carbonate-bicarbonate buffer (pH 9.6) at 4° C. overnight, followed by washes with washing buffer (0.01 M PBS containing 0.05% Tween-20) and blocking with PBS containing 1% dry fat-free milk. Virus lysates were added to the wells and incubated at 37° C. for 1 hr. […] Reactions were terminated by addition of 1N H2SO4. Absorbance at 450 nm was recorded in an ELISA reader (Ultra 384, TECAN). Recombinant protein p24, purchased from US Biological, was included for establishing standard dose response curves. Each sample was tested in triplicate. The percentage of inhibition of p24 production was calculated as previously described (Neurath A R et al. BMC Infect Dis 2:6, 2002).
4. Synergy analysis. […] In all analyses, HIV fusion/entry inhibitors were assumed to act noncompetitively, which led to a more conservative estimate of synergy. CI values<1 and >1 indicate synergy and antagonism, respectively. Dose reductions were calculated as the compound concentrations required for inhibition of HIV-1 replication when the compound was used alone and in combination. The statistic analysis was performed by the One-Way Analysis of Variance (One-Way ANOVA) method using Origin 6.1 software.

[2] = tested on: HIV-1-mediated cell-cell fusion (H9/HIV-1IIIB cells and MT-2 cells); assay: HIV-1-mediated cell-cell fusion, dye transfer assay; assay type: cell-based
Description: The inhibitory activities of the compounds on HIV-induced cell-cell fusion were determined using a dye transfer assay (Jiang S et al. Proc SPIE 3926:212-219, 2000). Briefly, H9/HIV-1IIIB cells were pre-labeled with a fluorescent dye, Calcein AM (Molecular Probes, Inc.), and incubated with a testing compound at a graded concentration at 37° C. for 30 min in a 96-well cell culture plate. Then the CD4^+ MT-2 cells were added to the H9/HIV-1IIIB cells at a ratio of 10:1, followed by incubation at 37° C. for 2 hrs. The fused and unfused calcein-labeled HIV-1-infected cells were counted under an inverted fluorescence microscope with an eyepiece micrometer disc.

[3] = tested on: viruses that are resistant to T-20; conditions: viruses resistant to T-20; cited from earlier work
[4] = target: gp41 six-helix bundle formation between N46 and C34-biotin (Human immunodeficiency virus type 1 group M subtype B, UniProt P04578); assay type: biochemical, HIV-1; conditions: triple combination of T-20, T-1249 and T-1144
Chain of gp41 six-helix bundle formation between N46 and C34-biotin (P04578 536-581): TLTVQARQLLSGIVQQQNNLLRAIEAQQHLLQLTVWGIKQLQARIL
Description: 6. Enzyme-linked Immunosorbent Assay (ELISA). […] The plate was then incubated for 30 min and added to horseradish peroxidase (HRP) labeled with streptavidin (SA-HRP) (ZYMED Laboratories). The plate was washed with the washing buffer (PBS containing 0.01% Tween 20) for 6 times to remove any unbound peptide. The substrate TMB was added sequentially. Absorbance at 450 nm (A450) was measured using an ELISA reader.

[5] = in combination T-20:T-1144 (4:1)
[6] = in combination T-20:T-1144 (4:1) vs alone
[7] = in combination T-20:T-1249:T-1144 (4:1:1)
[8] = in combination T-20:T-1249:T-1144 (4:1:1) vs alone
[9] = in combination T-1144:C34 (2:1)
[10] = in combination T-1144:C34 (2:1) vs alone
[11] = in combination T-1249:T-1144 (1:1)
[12] = in combination T-1249:T-1144 (1:1) vs alone

## CC[C@H](C)[C@H](NC(=O)[C@H](C)NC(=O)[C@H](CCCNC(=N)N)NC(=O)[C@H](CC(=O)O)NC(=O)[C@H](Cc1c[nH]c2ccccc12)NC(=O)[C@H](C)NC(=O)[C@H](CCC(=O)O)NC(=O)[C@H](Cc1c[nH]c2ccccc12)NC(=O)[C@@H](NC(=O)[C@@H](NC(C)=O)[C@@H](C)O)[C@@H](C)O)C(=O)N[C@@H](C)C(=O)N[C@@H](CCC(=O)O)C(=O)N[C@@H](Cc1ccc(O)cc1)C(=O)N[C@@H](C)C(=O)N[C@@H](C)C(=O)N[C@@H](CCCNC(=N)N)C(=O)N[C@H](C(=O)N[C@@H](CCC(=O)O)C(=O)N[C@@H](C)C(=O)N[C@@H](CC(C)C)C(=O)N[C@@H](CC(C)C)C(=O)N[C@@H](CCCNC(=N)N)C(=O)N[C@@H](C)C(=O)N[C@@H](CC(C)C)C(=O)N[C@@H](CCC(N)=O)C(=O)N[C@@H](CCC(=O)O)C(=O)N[C@@H](CCC(N)=O)C(=O)N[C@@H](CCC(N)=O)C(=O)N[C@@H](CCC(=O)O)C(=O)N[C@@H](CCCCN)C(=O)N[C@@H](CC(N)=O)C(=O)N[C@@H](CCC(=O)O)C(=O)N[C@@H](C)C(=O)N[C@@H](C)C(=O)N[C@@H](CC(C)C)C(=O)N[C@@H](CCCNC(=N)N)C(=O)N[C@@H](CCC(=O)O)C(=O)N[C@@H](CC(C)C)C(N)=O)[C@@H](C)CC [T-1144] (Ac-TTWEAWDRAIAEYAARIEALLRALQEQQEKNEAALREL-NH2; N-terminus and C-terminus assumed)
[1]; NL4-3D36G (T-20-sensitive), peptide alone
  EC50: 5.85 nM
[1]; T-20+T-1249+T-1144 7:5:1
  Dose reduction: 15.81 fold
[1]; T-20 combined with T-1144
  Dose reduction: 13.00 fold
[2]; [5]
  EC70 Concentration Mix: 0.008 nM
  EC95 Concentration Mix: 0.013 nM
[2]; [6]
  Potency increase at EC50: 435.500 fold
  Potency increase at EC70: 444.250 fold
  Potency increase at EC90: > 438 fold and 439.455 fold
  Potency increase at EC95: 458.462 fold
[2]; [7]
  EC70 Concentration Mix: 0.005 nM
  EC95 Concentration Mix: 0.007 nM
[2]; [8]
  Potency increase at EC50: 653.250 fold
  Potency increase at EC70: 710.800 fold
  Potency increase at EC90: 805.667 fold
  Potency increase at EC95: 851.429 fold
[2]; in combination T-20:T-1249:T-1144 (4:1:1), read-out: EC90 Concentration Mix
  EC90: 0.006 nM
[2]; [9]
  EC70 Concentration Mix: 0.408 nM
  EC95 Concentration Mix: 0.659 nM
[2]; [10]
  Potency increase at EC50: 8.511 fold
  Potency increase at EC70: 8.711 fold
  Potency increase at EC95: 9.044 fold
[2]; in combination T-1144:C34 (2:1), read-out: EC90 Concentration Mix
  EC90: 0.543 nM
[2]; [11]
  EC70 Concentration Mix: 0.232 nM
  EC95 Concentration Mix: 0.374 nM
[2]; [12]
  Potency increase at EC50: 15.017 fold
  Potency increase at EC70: 15.319 fold
  Potency increase at EC90: 15.695 fold
  Potency increase at EC95: 15.936 fold
[2]; in combination T-1249:T-1144 (1:1), read-out: EC90 Concentration Mix
  EC90: 0.308 nM
[2]; peptide tested alone
  EC70 Concentration Alone: 3.554 nM
  EC95 Concentration Alone: 5.960 nM
[2]; peptide tested alone, read-out: EC50 Concentration Alone
  EC50: 2.61 nM
[2]; peptide tested alone, read-out: EC90 Concentration Alone
  EC90: 4.83 nM
[3]
  activity relative to T-20: thousands fold more active than T-20
[4]
  Dose reduction, six-helix bundle formation: ~2 fold
